Experimental data: PubChem BioAssay AID651592 (Sanford-Burnham Center for Chemical Genomics, 2012)
pIC50: −log10 of the molar value.

Legend:
[1] = molecular target: Interleukin-8 (Homo sapiens) (UniProt P10145); test: inhibitors of NFkB activation in CF airway cells, SAR follow-up, KKLEB cells, panel, IL8 HTRF, NFkB-GFP (AID 651592); conditions: PAF/TNFa-induced NFkB-GFP / IL8 HTRF;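 note: immortalized cystic fibrosis airway epithelial KKLEB cells with an NF-kB GFP reporter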
IL8 = test: as above; conditions: PAF/TNFa-induced NFkB-GFP / IL8 HTRF, mean of runs, mean IC50 across panel replicates
[2] = as above; conditions: PAF/TNFa-induced NFkB-GFP / IL8 HTRF, CF-PAF assay
[3] = mean of runs, mean IC50 across panel replicates

Chain of Interleukin-8 (Homo sapiens) (P10145 whole entry, looked up): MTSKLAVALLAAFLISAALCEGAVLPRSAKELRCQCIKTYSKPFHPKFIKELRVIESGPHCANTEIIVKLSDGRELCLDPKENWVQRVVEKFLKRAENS

O=C(Nc1ccc(N2CCN(C(=O)c3ccccc3)CC2)cc1)c1cc(Br)cc(Br)c1
pIC50 ([1]; IL8, PAF-induced, run 1): < 4.18 | pIC50 ([1]; IL8, PAF-induced, run 2): < 4.18 | pIC50 ([1]; IL8, PAF-induced, run 3): < 4.18 | pIC50 ([1]; IL8, PAF-induced, run 4): < 4.18 | pIC50 ([1]; IL8, PAF-induced, run 5): < 4.18 | pIC50 ([1]; IL8, PAF-induced, run 6): < 4.18 | pIC50 ([1]; IL8, TNFa-induced, run 1): < 4.18 | pIC50 ([1]; IL8, TNFa-induced, run 2): < 4.18 | pIC50 ([1]; IL8, TNFa-induced, run 3): < 4.18 | pIC50 ([1]; IL8, TNFa-induced, run 4): < 4.18 | pIC50 ([1]; IL8, TNFa-induced, run 5): < 4.18 | pIC50 ([1]; IL8, TNFa-induced, run 6): < 4.18 | pIC50 (IL8; PAF-induced): < 4.18 | pIC50 (IL8; TNFa-induced): < 4.18 | pIC50 [2, 3]: < 4.18 | pIC50 ([2]; run 1): < 4.18 | pIC50 ([2]; run 2): < 4.18 | pIC50 ([2]; run 3): < 4.18 | pIC50 ([2]; run 4): < 4.18 | pIC50 ([2]; run 5): < 4.18 | pIC50 ([2]; run 6): < 4.18

O=C(Nc1ccc(N2CCN(C(=O)c3ccc(F)cc3)CC2)cc1)c1cccnc1
pIC50 ([1]; IL8, PAF-induced, run 1): < 4.18 | pIC50 ([1]; IL8, PAF-induced, run 2): < 4.18 | pIC50 ([1]; IL8, PAF-induced, run 3): < 4.18 | pIC50 ([1]; IL8, PAF-induced, run 4): < 4.18 | pIC50 ([1]; IL8, PAF-induced, run 5): < 4.18 | pIC50 ([1]; IL8, PAF-induced, run 6): < 4.18 | pIC50 ([1]; IL8, TNFa-induced, run 1): < 4.18 | pIC50 ([1]; IL8, TNFa-induced, run 2): < 4.18 | pIC50 ([1]; IL8, TNFa-induced, run 3): < 4.18 | pIC50 ([1]; IL8, TNFa-induced, run 4): < 4.18 | pIC50 ([1]; IL8, TNFa-induced, run 5): < 4.18 | pIC50 ([1]; IL8, TNFa-induced, run 6): < 4.18 | pIC50 (IL8; PAF-induced): < 4.18 | pIC50 (IL8; TNFa-induced): < 4.18 | pIC50 [2, 3]: 4.38 | pIC50 ([2]; run 1): 4.42 | pIC50 ([2]; run 2): 4.40 | pIC50 ([2]; run 3): 4.33 | pIC50 ([2]; run 4): < 4.18 | pIC50 ([2]; run 5): < 4.18 | pIC50 ([2]; run 6): < 4.18

O=C(Nc1ccc(N2CCN(C(=O)c3ccccc3F)CC2)cc1)c1ccccc1
pIC50 ([1]; IL8, PAF-induced, run 1): < 4.18 | pIC50 ([1]; IL8, PAF-induced, run 2): < 4.18 | pIC50 ([1]; IL8, PAF-induced, run 3): < 4.18 | pIC50 ([1]; IL8, PAF-induced, run 4): < 4.18 | pIC50 ([1]; IL8, PAF-induced, run 5): < 4.18 | pIC50 ([1]; IL8, PAF-induced, run 6): < 4.18 | pIC50 ([1]; IL8, TNFa-induced, run 1): < 4.18 | pIC50 ([1]; IL8, TNFa-induced, run 2): < 4.18 | pIC50 ([1]; IL8, TNFa-induced, run 3): 5.37 | pIC50 ([1]; IL8, TNFa-induced, run 4): < 4.18 | pIC50 ([1]; IL8, TNFa-induced, run 5): < 4.18 | pIC50 ([1]; IL8, TNFa-induced, run 6): < 4.18 | pIC50 (IL8; PAF-induced): < 4.18 | pIC50 (IL8; TNFa-induced): 4.25 | pIC50 [2, 3]: 4.43 | pIC50 ([2]; run 1): 5.08 | pIC50 ([2]; run 2): 5.03 | pIC50 ([2]; run 3): 5.03 | pIC50 ([2]; run 4): < 4.18 | pIC50 ([2]; run 5): < 4.18 | pIC50 ([2]; run 6): < 4.18

O=C(Nc1ccc(N2CCN(C(=O)c3ccccc3Cl)CC2)cc1)c1ccccn1
pIC50 ([1]; IL8, PAF-induced, run 1): < 4.18 | pIC50 ([1]; IL8, PAF-induced, run 2): 4.90 | pIC50 ([1]; IL8, PAF-induced, run 3): 4.71 | pIC50 ([1]; IL8, PAF-induced, run 4): 5.44 | pIC50 ([1]; IL8, PAF-induced, run 5): 5.23 | pIC50 ([1]; IL8, PAF-induced, run 6): 4.27 | pIC50 ([1]; IL8, TNFa-induced, run 1): < 4.18 | pIC50 ([1]; IL8, TNFa-induced, run 2): < 4.18 | pIC50 ([1]; IL8, TNFa-induced, run 3): < 4.18 | pIC50 ([1]; IL8, TNFa-induced, run 4): < 4.18 | pIC50 ([1]; IL8, TNFa-induced, run 5): < 4.18 | pIC50 ([1]; IL8, TNFa-induced, run 6): < 4.18 | pIC50 (IL8; PAF-induced): 4.72 | pIC50 (IL8; TNFa-induced): < 4.18 | pIC50 [2, 3]: 4.40 | pIC50 ([2]; run 1): 5.09 | pIC50 ([2]; run 2): 4.84 | pIC50 ([2]; run 3): 4.78 | pIC50 ([2]; run 4): < 4.18 | pIC50 ([2]; run 5): < 4.18 | pIC50 ([2]; run 6): < 4.18

O=C(Nc1ccc(N2CCN(C(=O)c3ccccc3)CC2)cc1)c1ccccn1
pIC50 ([1]; IL8, PAF-induced, run 1): < 4.18 | pIC50 ([1]; IL8, PAF-induced, run 2): < 4.18 | pIC50 ([1]; IL8, PAF-induced, run 3): < 4.18 | pIC50 ([1]; IL8, PAF-induced, run 4): < 4.18 | pIC50 ([1]; IL8, PAF-induced, run 5): < 4.18 | pIC50 ([1]; IL8, PAF-induced, run 6): < 4.18 | pIC50 ([1]; IL8, TNFa-induced, run 1): < 4.18 | pIC50 ([1]; IL8, TNFa-induced, run 2): < 4.18 | pIC50 ([1]; IL8, TNFa-induced, run 3): < 4.18 | pIC50 ([1]; IL8, TNFa-induced, run 4): < 4.18 | pIC50 ([1]; IL8, TNFa-induced, run 5): < 4.18 | pIC50 ([1]; IL8, TNFa-induced, run 6): < 4.18 | pIC50 (IL8; PAF-induced): < 4.18 | pIC50 (IL8; TNFa-induced): < 4.18 | pIC50 [2, 3]: < 4.18 | pIC50 ([2]; run 1): < 4.18 | pIC50 ([2]; run 2): < 4.18 | pIC50 ([2]; run 3): < 4.18 | pIC50 ([2]; run 4): < 4.18 | pIC50 ([2]; run 5): < 4.18 | pIC50 ([2]; run 6): < 4.18

O=C(Nc1ccc(N2CCN(C(=O)c3ccccc3)CC2)cc1)c1cccc(Br)c1
pIC50 ([1]; IL8, PAF-induced, run 1): < 4.18 | pIC50 ([1]; IL8, PAF-induced, run 2): 5.35 | pIC50 ([1]; IL8, PAF-induced, run 3): 4.75 | pIC50 ([1]; IL8, PAF-induced, run 4): < 4.18 | pIC50 ([1]; IL8, PAF-induced, run 5): < 4.18 | pIC50 ([1]; IL8, PAF-induced, run 6): < 4.18 | pIC50 ([1]; IL8, TNFa-induced, run 1): < 4.18 | pIC50 ([1]; IL8, TNFa-induced, run 2): < 4.18 | pIC50 ([1]; IL8, TNFa-induced, run 3): 4.83 | pIC50 ([1]; IL8, TNFa-induced, run 4): < 4.18 | pIC50 ([1]; IL8, TNFa-induced, run 5): < 4.18 | pIC50 ([1]; IL8, TNFa-induced, run 6): 5.08 | pIC50 (IL8; PAF-induced): 4.32 | pIC50 (IL8; TNFa-induced): 4.32 | pIC50 [2, 3]: 4.69 | pIC50 ([2]; run 1): 4.83 | pIC50 ([2]; run 2): 4.78 | pIC50 ([2]; run 3): 4.72 | pIC50 ([2]; run 4): 4.68 | pIC50 ([2]; run 5): 4.64 | pIC50 ([2]; run 6): 4.54

O=C(Nc1ccc(N2CCN(C(=O)c3ccccc3)CC2)cc1)c1cncc(Br)c1
pIC50 ([1]; IL8, PAF-induced, run 1): 5.36 | pIC50 ([1]; IL8, PAF-induced, run 2): 5.12 | pIC50 ([1]; IL8, PAF-induced, run 3): 5.01 | pIC50 ([1]; IL8, PAF-induced, run 4): 6.05 | pIC50 ([1]; IL8, PAF-induced, run 5): 5.13 | pIC50 ([1]; IL8, PAF-induced, run 6): 4.61 | pIC50 ([1]; IL8, TNFa-induced, run 1): < 4.18 | pIC50 ([1]; IL8, TNFa-induced, run 2): < 4.18 | pIC50 ([1]; IL8, TNFa-induced, run 3): 4.45 | pIC50 ([1]; IL8, TNFa-induced, run 4): < 4.18 | pIC50 ([1]; IL8, TNFa-induced, run 5): < 4.18 | pIC50 ([1]; IL8, TNFa-induced, run 6): < 4.18 | pIC50 (IL8; PAF-induced): 5.04 | pIC50 (IL8; TNFa-induced): 4.22 | pIC50 [2, 3]: 5.43 | pIC50 ([2]; run 1): 5.57 | pIC50 ([2]; run 2): 5.50 | pIC50 ([2]; run 3): 5.46 | pIC50 ([2]; run 4): 5.53 | pIC50 ([2]; run 5): 5.35 | pIC50 ([2]; run 6): 5.24

O=C(Nc1ccc(N2CCN(C(=O)c3ccccc3)CC2)cc1)c1ccccc1
pIC50 ([1]; IL8, PAF-induced, run 1): < 4.18 | pIC50 ([1]; IL8, PAF-induced, run 2): < 4.18 | pIC50 ([1]; IL8, PAF-induced, run 3): < 4.18 | pIC50 ([1]; IL8, PAF-induced, run 4): < 4.18 | pIC50 ([1]; IL8, PAF-induced, run 5): < 4.18 | pIC50 ([1]; IL8, PAF-induced, run 6): < 4.18 | pIC50 ([1]; IL8, TNFa-induced, run 1): < 4.18 | pIC50 ([1]; IL8, TNFa-induced, run 2): < 4.18 | pIC50 ([1]; IL8, TNFa-induced, run 3): < 4.18 | pIC50 ([1]; IL8, TNFa-induced, run 4): < 4.18 | pIC50 ([1]; IL8, TNFa-induced, run 5): < 4.18 | pIC50 ([1]; IL8, TNFa-induced, run 6): < 4.18 | pIC50 (IL8; PAF-induced): < 4.18 | pIC50 (IL8; TNFa-induced): < 4.18 | pIC50 [2, 3]: 4.30 | pIC50 ([2]; run 1): 4.52 | pIC50 ([2]; run 2): 4.50 | pIC50 ([2]; run 3): 4.37 | pIC50 ([2]; run 4): < 4.18 | pIC50 ([2]; run 5): < 4.18 | pIC50 ([2]; run 6): < 4.18
